According to patent US20090325959A1 (priority 2008, published 2009):
Read-outs that look alike come from different tables or passages of the source.

Experiments:
Akt3 human enzyme = biological target: T1, Akt3 human enzyme (Homo sapiens, UniProt Q9Y243); test: Akt3 inhibition assay (IMAP FP); type: biochemical; details: 30 μM ATP; Ki=IC50/(1+([ATP Challenge]/EC50 ATP)); read-out: Akt3 Ki, Avg;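 note: kinase reaction run 60 min at room temperature after 30 µM ATP start, phosphorylated substrate captured on IMAP beads and read as fluorescence polarization (mP)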
T1 construct: purchased Upstate Chemicon 14-502
Protocol: Inhibition of Akt3 and p70S6K activity was determined using the IMAP™ FP Progressive Binding Kit (Molecular Devices product number R8127). […] Following the pre-incubation, 30 μM ATP was added to initiate the reaction. After 60 minutes at RT, Molecular Devices IMAP™ binding solution was added to bind phosphorylated substrate. After 30 minutes of incubation in the presence of the IMAP™ beads the fluorescence polarization was read and the ratio was reported as mP. IC50 results were calculated using the Prism software from Graphpad. The Ki values were determined according to the following formula: Ki=IC50/(1+([ATP Challenge]/EC50 ATP)).

ROCK2 = biological target: T2, ROCK2 (Homo sapiens, UniProt O75116); test: Rho kinase inhibition assay (IMAP fluorescence polarization), ROCK2; type: biochemical;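 note: kinase reaction started with 10 µM ATP and run 60 min at room temperature, then phosphorylated substrate captured on IMAP beads for 30 min and fluorescence polarization read in mP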
T2 construct: purchased Upstate/Chemicon 14-451
Protocol: (§1) Following the pre-incubation, 10 μM ATP was added to initiate the reaction. After 60 minutes at room temperature, Molecular Devices IMAP™ binding solution was added to bind phosphorylated substrate. After 30 minutes of incubation in the presence of the IMAP™ beads, the fluorescence polarization was read and the ratio was reported as mP. IC50 values for compounds and EC50 values for ATP were calculated using the Prism software from Graphpad.

p70S6K human enzyme = biological target: T3, p70S6K human enzyme (Homo sapiens, UniProt P23443, T412E); test: p70S6K inhibition assay (IMAP FP); type: biochemical; details: 30 μM ATP; Ki=IC50/(1+([ATP Challenge]/EC50 ATP)); read-out: p70S6K Ki, Avg;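 note: kinase reaction run at room temperature, phosphorylated substrate captured on IMAP beads and read as fluorescence polarization in mP, IC50 then converted to Ki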
T3 construct: purchased Upstate Chemicon 14-486

ROCK1 = biological target: T4, ROCK1 (Homo sapiens, UniProt Q13464); test: Rho kinase inhibition assay (IMAP fluorescence polarization), ROCK1; type: biochemical;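 note: kinase reaction run 60 min at room temperature, then phosphorylated substrate captured on IMAP beads for 30 min, with fluorescence polarization read in mP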
T4 construct: purchased Upstate/Chemicon 14-601
Protocol: as §1

[1] = Compound plasma concentrations in unsensitized mice at 15 min post administration; type: in vivo; details: mouse, 15 μmol/kg; mean compound plasma concentration in mice at 15 minutes post oral administration; read-out: Mouse Oral PK
[2] = 10 μM ATP, read-out: ROCK2 Ki, Avg

T4 sequence (Q13464 17-535 limits assumed): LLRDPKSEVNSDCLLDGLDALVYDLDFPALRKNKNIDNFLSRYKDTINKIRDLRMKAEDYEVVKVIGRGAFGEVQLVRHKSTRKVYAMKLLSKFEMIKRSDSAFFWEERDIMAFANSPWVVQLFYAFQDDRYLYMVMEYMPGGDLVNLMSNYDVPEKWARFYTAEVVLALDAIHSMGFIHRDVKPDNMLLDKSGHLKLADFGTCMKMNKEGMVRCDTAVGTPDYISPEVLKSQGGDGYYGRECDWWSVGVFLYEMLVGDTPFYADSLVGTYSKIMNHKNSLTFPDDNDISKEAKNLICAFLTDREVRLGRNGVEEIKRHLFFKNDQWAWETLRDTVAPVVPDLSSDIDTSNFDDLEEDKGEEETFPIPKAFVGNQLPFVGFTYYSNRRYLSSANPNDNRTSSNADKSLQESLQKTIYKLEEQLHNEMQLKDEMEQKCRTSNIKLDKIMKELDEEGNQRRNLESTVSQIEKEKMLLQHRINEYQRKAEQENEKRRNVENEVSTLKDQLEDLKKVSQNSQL
T1 sequence (Q9Y243 whole entry): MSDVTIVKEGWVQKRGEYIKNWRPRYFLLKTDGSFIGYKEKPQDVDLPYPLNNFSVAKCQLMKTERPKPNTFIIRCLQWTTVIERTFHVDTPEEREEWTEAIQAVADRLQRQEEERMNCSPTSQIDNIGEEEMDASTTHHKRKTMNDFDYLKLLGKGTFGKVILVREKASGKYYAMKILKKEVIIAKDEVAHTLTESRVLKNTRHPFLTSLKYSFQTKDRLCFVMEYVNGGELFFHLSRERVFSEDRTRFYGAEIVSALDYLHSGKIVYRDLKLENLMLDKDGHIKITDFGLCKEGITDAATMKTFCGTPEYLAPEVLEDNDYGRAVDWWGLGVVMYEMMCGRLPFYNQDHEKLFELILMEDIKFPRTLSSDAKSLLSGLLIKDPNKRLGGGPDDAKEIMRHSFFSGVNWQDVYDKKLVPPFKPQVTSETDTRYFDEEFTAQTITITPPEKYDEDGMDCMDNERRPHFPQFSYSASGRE
T3 sequence (P23443 1-421 T412E limits assumed): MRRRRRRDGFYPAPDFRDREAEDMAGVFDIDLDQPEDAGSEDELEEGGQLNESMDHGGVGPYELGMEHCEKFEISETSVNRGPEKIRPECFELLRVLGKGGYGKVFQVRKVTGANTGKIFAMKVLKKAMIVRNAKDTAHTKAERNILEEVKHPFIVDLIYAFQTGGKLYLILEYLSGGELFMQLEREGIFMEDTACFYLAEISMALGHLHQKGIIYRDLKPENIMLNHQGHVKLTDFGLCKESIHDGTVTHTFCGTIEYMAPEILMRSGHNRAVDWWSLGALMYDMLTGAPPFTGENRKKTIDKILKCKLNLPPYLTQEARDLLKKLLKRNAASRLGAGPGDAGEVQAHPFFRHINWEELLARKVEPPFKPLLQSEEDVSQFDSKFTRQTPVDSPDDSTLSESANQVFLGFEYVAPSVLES
T2 sequence (O75116 11-552 limits assumed): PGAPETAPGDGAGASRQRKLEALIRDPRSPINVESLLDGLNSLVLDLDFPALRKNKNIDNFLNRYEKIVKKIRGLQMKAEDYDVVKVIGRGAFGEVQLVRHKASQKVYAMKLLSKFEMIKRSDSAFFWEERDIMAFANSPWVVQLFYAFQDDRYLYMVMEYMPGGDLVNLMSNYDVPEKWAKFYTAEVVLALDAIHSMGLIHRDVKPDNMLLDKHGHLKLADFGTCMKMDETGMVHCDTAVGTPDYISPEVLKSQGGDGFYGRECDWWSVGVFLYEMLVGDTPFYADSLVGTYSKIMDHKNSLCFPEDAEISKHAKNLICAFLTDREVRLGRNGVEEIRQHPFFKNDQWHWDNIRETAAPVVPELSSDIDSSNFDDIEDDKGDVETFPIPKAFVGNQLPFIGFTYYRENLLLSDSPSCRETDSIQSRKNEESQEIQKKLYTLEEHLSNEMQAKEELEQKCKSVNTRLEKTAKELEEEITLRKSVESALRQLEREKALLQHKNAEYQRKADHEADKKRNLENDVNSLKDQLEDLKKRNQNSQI

Row | SMILES | Ki (Akt3 human enzyme) [nM] | Ki (ROCK2; [2]) [nM] | Ki (p70S6K human enzyme) [nM] | Ki (ROCK1; Avg, 10 μM ATP) [nM] | Ki (ROCK2; average Ki, read-out: ROCK2 Ki) [nM] | concentration at 15 min [1] [nM] | Ki (ROCK1; average Ki) [nM]
1 | Cc1ccc(CN2CCC[C@H](Nc3ccc4[nH]ncc4c3)C2)cc1 [Compound 1.078, (S)-N-(1-(4-methylbenzyl)piperidin-3-yl)-1H-indazol-5-amine] | 3270 | 3.6 | 1680 | 36.3 | – | – | –
2 | Oc1cccc(CN2CC[C@@H](Nc3cccc4cnccc34)C2)c1 [Compound 2.061, (R)-3-((3-(isoquinolin-5-ylamino)pyrrolidin-1-yl)methyl)phenol] | – | 1.8 | – | 10.5 | 1.8 | 73 | 10.5
3 | c1cc2cc(CN3CCC[C@@H](Nc4ccc5[nH]ncc5c4)C3)ccc2[nH]1 [Compound 1.143, (R)-N-(1-((1H-indol-5-yl)methyl)piperidin-3-yl)-1H-indazol-5-amine] | 707 | 12.6 | 538 | 49.7 | – | – | –
4 | Fc1ccc(CN2CCC[C@@H](Nc3ccc4[nH]ncc4c3)C2)cc1 [Compound 1.146, (R)-N-(1-(4-fluorobenzyl)piperidin-3-yl)-1H-indazol-5-amine] | 205 | 10.7 | 742 | 39.8 | – | – | –
5 | CSc1cccc(CN2CCC[C@@H](Nc3ccc4[nH]ncc4c3)C2)c1 [Compound 1.159, (R)-N-(1-(3-(methylthio)benzyl)piperidin-3-yl)-1H-indazol-5-amine] | 1230 | 10.1 | 2060 | 48.1 | – | – | –
6 | c1cc(N[C@@H]2CCN(Cc3ccc4[nH]ccc4c3)C2)c2ccncc2c1 [Compound 2.065, (R)-N-(1-((1H-indol-5-yl)methyl)pyrrolidin-3-yl)isoquinolin-5-amine] | – | 1.8 | – | 4.1 | 1.8 | 236 | 4.1
7 | c1cc(C2CC2)ccc1CN1CCC[C@H](Nc2ccc3[nH]ncc3c2)C1 [Compound 1.185, (S)-N-(1-(4-cyclopropylbenzyl)piperidin-3-yl)-1H-indazol-5-amine] | 4220 | 12.6 | 1150 | 81.6 | – | – | –
8 | Cc1ccc(S(=O)(=O)Nc2cc(CN3CCC[C@@H](Nc4ccc5[nH]ncc5c4)C3)ccc2C)cc1 [Compound 1.260, (R)-N-(5-((3-(1H-indazol-5-ylamino)piperidin-1-yl)methyl)-2-methylphenyl)-4-methylbenzenesulfonamide] | – | 7.1 | – | 70.9 | 7.1 | 291 | 70.9
9 | O=C(COc1cccc(CN2CCC[C@@H](Nc3ccc4[nH]ncc4c3)C2)c1)N1CCOCC1 [Compound 1.127, (R)-2-(3-((3-(1H-indazol-5-ylamino)piperidin-1-yl)methyl)phenoxy)-1-morpholinoethanone] | 975 | 11.2 | 2070 | 96.6 | – | – | –
10 | FC(F)(F)c1ccc(CN2CCC[C@@H](Nc3ccc4[nH]ncc4c3)C2)cc1 [Compound 1.178, (R)-N-(1-(4-(trifluoromethyl)benzyl)piperidin-3-yl)-1H-indazol-5-amine] | 711 | 24.9 | 1120 | 138 | – | – | –
11 | c1ccc(CN2CCC[C@@H](Nc3ccc4[nH]ncc4c3)C2)cc1 [Compound 1.110, (R)-N-(1-benzylpiperidin-3-yl)-1H-indazol-5-amine] | 463 | 11.2 | 1300 | 59 | – | – | –
12 | C=Cc1ccc(CN2CCC[C@@H](Nc3ccc4[nH]ncc4c3)C2)cc1 [Compound 1.208, (R)-N-(1-(4-vinylbenzyl)piperidin-3-yl)-1H-indazol-5-amine] | 346 | 12.9 | 721 | 54.2 | – | – | –
13 | O=C(COc1cccc(CN2CCC[C@@H](Nc3ccc4[nH]ncc4c3)C2)c1)Nc1cccnc1 [Compound 1.126, (R)-2-(3-((3-(1H-indazol-5-ylamino)piperidin-1-yl)methyl)phenoxy)-N-(pyridin-3-yl)acetamide] | – | 17.2 | – | 76.2 | 17.2 | 0 | 76.2
